Assay results published in patent US9066958B2 (priority 2006, dated 2015).
Read-outs that look alike come from different tables or passages of the source.

Legend:
[1] = Stability of solvent with storage; type: physicochemical
[2] = Stability of vitamin D in vehicle; type: physicochemical; conditions: result in words; only cells marked # are direct experimental observation
Source text: The liquid has minimal sensory effects i.e. it has minimal smell, taste, or texture i.e. no oily feel. The liquid is biologically natural in the context of breast-feeding, and is safe for infant consumption. The liquid per se is not subject to rancidity or oxidation over the shelf-life of the composition. […] One drop of each liquid was applied onto a nipple to determine whether it would adhere well enough so that no portion of it would drip off in a timeframe of 10 seconds. The results of these experimental observations are presented in Table 1 along with further considerations regarding the parameters desired for this invention.

Molecule | Stability of solvent with storage [1] | Stability of vitamin D in vehicle [2] | Stability of solvent with storage ([1]; direct experimental observation)
Medium-chain triglyceride | Stable | – | –
O [Water] | Stable | – | –
CCO [Ethanol] | – | Solvent | Evaporates
CC(=O)Oc1c(C)c(C)c2c(c1C)CCC(C)(CCC[C@H](C)CCC[C@H](C)CCCC(C)C)O2 (stereo partly shown) [Eitamin E acetate oil] | Stable | – | –
Sesame oil | Oxidizes/ | – | –
Canola oil | Oxidizes/ | – | –
